Source: patent US10676479B2, “Imidazolepyridine compounds and uses thereof” (Novartis AG, priority 2016, dated 2020)

Legend:
EED (1-441)-His protein = EED (1-441)-His protein (Homo sapiens (Human), UniProt O75530); assay: EED-H3K27Me3 peptide competition binding assay by AlphaScreen; details: EED Alphascreen binding Qualified assay
[1] = biological target: wild type PRC2 (wtPRC2) complex (Homo sapiens (Human), UniProt O75530); assay: EED LC-MS assay; format: biochemical; details: EED LC-MS Qualified assay; read-out: (b) IC50
Procedure: EED LC-MS Assay Representative compounds of the present invention were serially and separately diluted 3-fold in DMSO to obtain a total of eight or twelve concentrations. […] A 6 μL solution of 3 μM of the peptide substrate H3K27Me0 (histone H3[21-44]-biotin) in reaction buffer was added to initiate each reaction. […] The data were then fit to a dose response equation using the program Helios to get the IC50 values of the test compound.

[2] = system: H3K27 methylation in G401 cell; assay: ELISA (H3K27 methylation) assay; format: cell-based; details: Homo sapiens, G-401, ELISA Qualified assay, 48 h, read-out: (c) IC50
How it was run: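 G401 cells given 3-fold serial dilutions (eight or twelve points, top 20 μM) for 48 h. Lysate ELISA for H3K27 methylation normalized to H3 signal, % inhibition versus DMSO, IC50 from dose-response fit.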

Sequence of EED (1-441)-His protein (O75530 whole entry): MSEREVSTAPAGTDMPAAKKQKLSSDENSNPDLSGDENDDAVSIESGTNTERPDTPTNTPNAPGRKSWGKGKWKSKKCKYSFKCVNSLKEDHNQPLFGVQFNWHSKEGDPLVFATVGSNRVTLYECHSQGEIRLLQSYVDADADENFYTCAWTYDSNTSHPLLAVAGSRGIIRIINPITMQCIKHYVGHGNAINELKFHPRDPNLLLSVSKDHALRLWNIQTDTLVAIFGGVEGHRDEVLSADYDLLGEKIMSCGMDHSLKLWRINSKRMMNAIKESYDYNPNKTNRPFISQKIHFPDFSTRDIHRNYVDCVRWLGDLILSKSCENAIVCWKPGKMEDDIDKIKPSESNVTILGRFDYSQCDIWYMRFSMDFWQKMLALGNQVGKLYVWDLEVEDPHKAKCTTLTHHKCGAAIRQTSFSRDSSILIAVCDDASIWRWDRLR
Sequence of wild type PRC2 (wtPRC2) complex (O75530 whole entry): as above
Sequence of wild type PRC2 (wtPRC2) complex (Q15910 whole entry partner): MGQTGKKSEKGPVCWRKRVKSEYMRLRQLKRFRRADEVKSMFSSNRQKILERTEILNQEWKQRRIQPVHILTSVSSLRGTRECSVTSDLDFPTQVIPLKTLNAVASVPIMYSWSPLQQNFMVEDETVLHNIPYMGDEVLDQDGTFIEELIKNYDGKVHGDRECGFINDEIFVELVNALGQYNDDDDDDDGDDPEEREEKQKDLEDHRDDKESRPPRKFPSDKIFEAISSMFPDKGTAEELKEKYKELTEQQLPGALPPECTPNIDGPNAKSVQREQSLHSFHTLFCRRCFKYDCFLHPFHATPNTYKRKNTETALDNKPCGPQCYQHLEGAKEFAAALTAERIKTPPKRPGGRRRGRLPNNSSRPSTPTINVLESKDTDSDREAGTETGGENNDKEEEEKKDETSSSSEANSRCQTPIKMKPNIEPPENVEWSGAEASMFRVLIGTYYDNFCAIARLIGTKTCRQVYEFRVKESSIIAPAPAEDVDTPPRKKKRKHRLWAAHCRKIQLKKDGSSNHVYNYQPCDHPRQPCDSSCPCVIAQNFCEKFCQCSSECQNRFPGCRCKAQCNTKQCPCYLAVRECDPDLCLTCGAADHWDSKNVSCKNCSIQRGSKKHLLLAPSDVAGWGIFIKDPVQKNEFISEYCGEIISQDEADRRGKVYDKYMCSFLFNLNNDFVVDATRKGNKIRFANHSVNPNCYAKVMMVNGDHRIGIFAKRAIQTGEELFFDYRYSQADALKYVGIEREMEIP
Sequence of wild type PRC2 (wtPRC2) complex (Q15022 whole entry partner): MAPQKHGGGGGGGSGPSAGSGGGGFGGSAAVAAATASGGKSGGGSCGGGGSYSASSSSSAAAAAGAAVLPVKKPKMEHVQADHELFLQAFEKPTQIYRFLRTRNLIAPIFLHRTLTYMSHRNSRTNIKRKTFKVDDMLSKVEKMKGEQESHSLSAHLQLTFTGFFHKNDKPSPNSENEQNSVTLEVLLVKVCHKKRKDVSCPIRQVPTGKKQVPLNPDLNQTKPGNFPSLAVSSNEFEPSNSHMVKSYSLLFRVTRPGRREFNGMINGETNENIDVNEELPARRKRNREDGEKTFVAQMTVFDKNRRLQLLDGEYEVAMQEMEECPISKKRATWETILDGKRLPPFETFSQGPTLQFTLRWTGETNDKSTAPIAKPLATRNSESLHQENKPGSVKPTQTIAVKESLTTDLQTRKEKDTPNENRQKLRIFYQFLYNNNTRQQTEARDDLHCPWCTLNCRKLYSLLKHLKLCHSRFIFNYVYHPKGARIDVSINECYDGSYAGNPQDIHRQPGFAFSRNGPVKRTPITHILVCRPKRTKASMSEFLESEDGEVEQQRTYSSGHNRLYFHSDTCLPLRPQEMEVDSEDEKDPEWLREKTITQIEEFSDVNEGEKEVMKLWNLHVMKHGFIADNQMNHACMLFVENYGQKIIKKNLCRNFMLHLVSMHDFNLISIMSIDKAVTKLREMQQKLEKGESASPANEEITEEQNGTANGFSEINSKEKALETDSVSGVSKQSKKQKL

IC50 (EED (1-441)-His protein) [µM]	IC50 [1] [µM]	IC50 [2] [µM]	SMILES
0.0052	0.0094	0.0064	Fc1ccc2c(c1CNc1ncc(-c3cccnc3C(F)F)c3cncn13)CCO2 [Example 51, 8-(2-(difluoromethyl)pyridin-3-yl)-N-((5-fluoro-2,3-dihydrobenzofuran-4-yl)methyl)imidazo[1,5-c]pyrimidin-5-amine]
0.0069	0.017	0.0024	CS(=O)(=O)c1ncn2c(NCc3c(F)ccc4c3CCO4)ncc(-c3cccnc3)c12 [Example 102, N-((5-fluoro-2,3-dihydrobenzofuran-4-yl)methyl)-1-(methylsulfonyl)-8-(pyridin-3-yl)imidazo[1,5-c]pyrimidin-5-amine]
0.0105	0.0101	0.031	Fc1ccc2c(c1CNc1ncc(-c3ccc(CN4CCCC4)cc3)c3cncn13)CCO2 [Example 39, N-((5-fluoro-2,3-dihydrobenzofuran-4-yl)methyl)-8-(4-(pyrrolidin-1-ylmethyl)phenyl)imidazo[1,5-c]pyrimidin-5-amine]
0.0071	0.0162	0.0742	Cc1ncc(-c2cnc(NCc3c(F)ccc4c3CCO4)n3cncc23)cn1 [Example 50, N-((5-fluoro-2,3-dihydrobenzofuran-4-yl)methyl)-8-(2-methylpyrimidin-5-yl)imidazo[1,5-c]pyrimidin-5-amine]
0.0023	0.0057	0.0131	Cc1nc(N2CC(C)NC(C)C2)ncc1-c1cnc(NCc2c(F)ccc3c2CCO3)n2cnc(C#N)c12 (stereo not drawn) [Example 83, 8-(2-(3,5-dimethylpiperazin-1-yl)-4-methylpyrimidin-5-yl)-5-(((5-fluoro-2,3-dihydrobenzofuran-4-yl)methyl)amino)imidazo[1,5-c]pyrimidine-1-carbonitrile]
0.0158	0.0168	0.114	CCOC(=O)c1ncn2c(NCc3cc(OC)c(F)cc3F)ncc(-c3cccnc3C)c12 [Example 96, ethyl 5-((2,4-difluoro-5-methoxybenzyl)amino)-8-(2-methylpyridin-3-yl)imidazo[1,5-c]pyrimidine-1-carboxylate]
0.0412	0.0146	0.0512	CN(C)c1ccc(-c2cnc(NCc3c(F)ccc4c3CCO4)n3cncc23)cn1 [Example 41, 8-(6-(dimethylamino)pyridin-3-yl)-N-((5-fluoro-2,3-dihydrobenzofuran-4-yl)methyl)imidazo[1,5-c]pyrimidin-5-amine]

The remaining lines, values behind:

SMILES	IC50 (EED (1-441)-His protein) [µM]	IC50 [1] [µM]	IC50 [2] [µM]
Cc1ncc(-c2cnc(NCc3c(F)ccc4c3CCO4)n3cnc(CO)c23)c(C)n1 [Example 8, (8-(2,4-Dimethylpyrimidin-5-yl)-5-(((5-fluoro-2,3-dihydrobenzofuran-4-yl)methyl)amino)imidazo[1,5-c]pyrimidin-1-yl)methanol]	0.0116	0.0186	0.0304
Cc1ncc(-c2cnc(NCc3c(F)ccc4c3CCO4)n3cnc(Cl)c23)c(C)n1 [Example 9, 1-chloro-8-(2,4-dimethylpyrimidin-5-yl)-N-((5-fluoro-2,3-dihydrobenzofuran-4-yl)methyl)imidazo[1,5-c]pyrimidin-5-amine]	0.0104	0.011	0.0109
Cn1nccc1-c1cnc(NCc2c(F)ccc3c2CCO3)n2cncc12 [Example 33, N-((5-fluoro-2,3-dihydrobenzofuran-4-yl)methyl)-8-(1-methyl-1H-pyrazol-5-yl)imidazo[1,5-c]pyrimidin-5-amine]	0.0075	0.0159	0.0221
Fc1ccc2c(c1CNc1ncc(-c3cccnc3)c3cncn13)CCO2 [Example 28, N-((5-fluoro-2,3-dihydrobenzofuran-4-yl)methyl)-8-(pyridin-3-yl)imidazo[1,5-c]pyrimidin-5-amine]	0.0199	0.0218	0.0506
N#Cc1ccc(-c2cnc(NCc3c(F)ccc4c3CCO4)n3cncc23)cn1 [Example 31, 5-(5-(((5-fluoro-2,3-dihydrobenzofuran-4-yl)methyl)amino)imidazo[1,5-c]pyrimidin-8-yl)picolinonitrile]	0.0144	0.0209	0.0399
CS(=O)(=O)c1ccc(-c2cnc(NCc3c(F)ccc4c3CCO4)n3cncc23)cn1 [Example 22, N-((5-fluoro-2,3-dihydrobenzofuran-4-yl)methyl)-8-(6-(methylsulfonyl)pyridin-3-yl)imidazo[1,5-c]pyrimidin-5-amine]	0.0055	0.0098	0.0563
CN(C)CCc1ccc(-c2cnc(NCc3c(F)ccc4c3CCO4)n3cncc23)cn1 [Example 32, 8-(6-(2-(dimethylamino)ethyl)pyridin-3-yl)-N-((5-fluoro-2,3-dihydrobenzofuran-4-yl)methyl)imidazo[1,5-c]pyrimidin-5-amine]	0.0087	0.0247	0.0404
CC(=O)c1ncn2c(NCc3c(F)ccc4c3CCO4)ncc(-c3cnc(C)nc3C)c12 [Example 16, 1-(8-(2,4-Dimethylpyrimidin-5-yl)-5-(((5-fluoro-2,3-dihydrobenzofuran-4-yl)methyl)amino)-imidazo[1,5-c]pyrimidin-1-yl)ethan-1-one]	0.0091	0.0175	0.0076
